How the values were obtained:
[1] = biological target: T1, HA-F801A CaSR mutant (ICL3 mutant) (Rattus norvegicus, UniProt P48442, F801A); assay: IP-One assay, HEK293T transiently transfected; type: cell-based
T1 construct: mGluR5 signal peptide (N); expressed in transfected cells; host or cells: HEK293T

HA-F684A CaSR mutant = biological target: T2, HA-F684A CaSR mutant (Rattus norvegicus, UniProt P48442, F684A); assay: IP-One assay, HEK293T transiently transfected; type: cell-based
T2 construct: mGluR5 signal peptide (N); expressed in transfected cells; host or cells: HEK293T
T2 sequence (P48442 20-1079 F684A): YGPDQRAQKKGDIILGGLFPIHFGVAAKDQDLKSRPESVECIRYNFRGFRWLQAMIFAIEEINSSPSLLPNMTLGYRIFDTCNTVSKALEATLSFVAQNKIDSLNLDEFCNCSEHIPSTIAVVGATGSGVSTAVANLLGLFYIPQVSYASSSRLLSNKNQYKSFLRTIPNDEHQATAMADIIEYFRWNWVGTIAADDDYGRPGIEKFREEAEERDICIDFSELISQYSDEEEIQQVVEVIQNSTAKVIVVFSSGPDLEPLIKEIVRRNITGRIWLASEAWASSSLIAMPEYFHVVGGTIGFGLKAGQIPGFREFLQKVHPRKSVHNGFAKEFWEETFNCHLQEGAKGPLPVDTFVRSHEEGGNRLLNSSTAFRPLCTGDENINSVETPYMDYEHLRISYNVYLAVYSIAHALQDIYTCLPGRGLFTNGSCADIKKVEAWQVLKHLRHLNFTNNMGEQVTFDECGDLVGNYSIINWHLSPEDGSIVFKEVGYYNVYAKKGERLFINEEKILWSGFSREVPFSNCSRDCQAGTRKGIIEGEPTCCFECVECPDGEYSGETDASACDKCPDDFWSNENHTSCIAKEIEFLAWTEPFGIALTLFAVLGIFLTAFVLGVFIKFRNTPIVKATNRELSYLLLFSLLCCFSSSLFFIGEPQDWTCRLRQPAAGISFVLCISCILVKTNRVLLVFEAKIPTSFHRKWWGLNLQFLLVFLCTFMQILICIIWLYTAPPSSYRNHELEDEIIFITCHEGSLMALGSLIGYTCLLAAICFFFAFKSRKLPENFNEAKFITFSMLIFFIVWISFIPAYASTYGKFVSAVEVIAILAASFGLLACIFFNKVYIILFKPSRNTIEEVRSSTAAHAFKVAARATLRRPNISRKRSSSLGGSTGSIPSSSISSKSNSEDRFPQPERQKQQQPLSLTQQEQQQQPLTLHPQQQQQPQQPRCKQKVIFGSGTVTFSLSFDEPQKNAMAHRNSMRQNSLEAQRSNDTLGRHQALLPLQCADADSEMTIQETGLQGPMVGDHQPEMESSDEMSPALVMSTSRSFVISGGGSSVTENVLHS

T1 sequence (P48442 20-1079 F801A): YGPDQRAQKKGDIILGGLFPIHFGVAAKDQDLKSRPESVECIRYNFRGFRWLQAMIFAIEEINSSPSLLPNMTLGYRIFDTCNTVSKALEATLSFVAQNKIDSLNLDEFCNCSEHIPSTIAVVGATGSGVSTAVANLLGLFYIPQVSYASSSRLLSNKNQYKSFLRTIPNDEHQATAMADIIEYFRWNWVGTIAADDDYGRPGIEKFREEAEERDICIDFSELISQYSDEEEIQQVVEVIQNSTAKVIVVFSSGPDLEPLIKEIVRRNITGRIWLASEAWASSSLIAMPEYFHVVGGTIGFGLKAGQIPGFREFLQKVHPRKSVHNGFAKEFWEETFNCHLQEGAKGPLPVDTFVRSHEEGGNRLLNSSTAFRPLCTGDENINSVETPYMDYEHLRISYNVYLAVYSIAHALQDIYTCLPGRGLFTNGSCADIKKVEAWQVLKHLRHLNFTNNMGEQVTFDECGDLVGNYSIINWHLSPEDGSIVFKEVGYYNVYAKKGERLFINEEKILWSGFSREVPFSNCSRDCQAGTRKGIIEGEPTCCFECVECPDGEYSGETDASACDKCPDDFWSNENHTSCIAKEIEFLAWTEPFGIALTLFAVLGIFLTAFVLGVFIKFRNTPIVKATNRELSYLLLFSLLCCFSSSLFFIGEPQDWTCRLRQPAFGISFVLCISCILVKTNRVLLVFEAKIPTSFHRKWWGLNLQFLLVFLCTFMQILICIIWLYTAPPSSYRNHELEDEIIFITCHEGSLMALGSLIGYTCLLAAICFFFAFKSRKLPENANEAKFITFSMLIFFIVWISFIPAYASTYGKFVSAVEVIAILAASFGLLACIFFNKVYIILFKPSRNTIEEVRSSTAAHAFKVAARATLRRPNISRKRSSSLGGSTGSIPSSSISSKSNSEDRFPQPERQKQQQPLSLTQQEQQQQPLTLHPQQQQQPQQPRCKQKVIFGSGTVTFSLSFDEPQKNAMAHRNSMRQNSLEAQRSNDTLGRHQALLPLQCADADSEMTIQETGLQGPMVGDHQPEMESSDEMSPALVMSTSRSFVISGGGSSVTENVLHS

- EC50 ([1]; Ca^2+ alone): > 30 mM
- Max ± S.E.M. ([1]; normalized to maximum response of WT CaSR): 5.8 ± 0.4%
- EC50 (HA-F684A CaSR mutant; Ca^2+ alone): 6.6 mM
- pEC50 ± S.E.M. (HA-F684A CaSR mutant; Ca^2+ alone): 2.18 ± 0.01
- Max ± S.E.M. (HA-F684A CaSR mutant; Ca^2+ alone, normalized to maximum response of WT CaSR): 97 ± 3.4%
- EC50 (HA-F684A CaSR mutant; Ca^2+ with 1 μM NPS R-568): 2.89 mM
- pEC50 ± S.E.M. (HA-F684A CaSR mutant; Ca^2+ with 1 μM NPS R-568): 2.54 ± 0.02
- Max ± S.E.M. (HA-F684A CaSR mutant; Ca^2+ with 1 μM NPS R-568, normalized to maximum response with Ca^2+ alone for the construct): 99 ± 11%
- EC50 (HA-F684A CaSR mutant; Ca^2+ with 5 μM NPS 2143): 8.17 mM
- pEC50 ± S.E.M. (HA-F684A CaSR mutant; Ca^2+ with 5 μM NPS 2143): 2.09 ± 0.004
- Max ± S.E.M. (HA-F684A CaSR mutant; Ca^2+ with 5 μM NPS 2143, normalized to maximum response with Ca^2+ alone for the construct): 70 ± 8.1%
SMILES: [Ca+2] [Ca^2+]
